In the CheMixHub viscosity set:

Test: xn = mol fraction of the nth substance listed

CC(=O)OCCC(C)C + Brc1ccccc1
viscosity [mPa·s], 101 kPa
Details	298.15 K	303.15 K	308.15 K	313.15 K
x1 = 0.0443	1.026	–	0.952	–
x1 = 0.0719	–	1.003	–	0.883
x1 = 0.1494	0.992	–	0.925	–
x1 = 0.1499	–	0.991	–	0.869
x1 = 0.2334	–	0.974	–	0.852
x1 = 0.2513	0.962	–	0.898	–
x1 = 0.3222	–	0.949	–	0.828
x1 = 0.3494	0.933	–	0.875	–
x1 = 0.4137	–	0.921	–	0.801
x1 = 0.4478	0.908	–	0.853	–
x1 = 0.4962	0.895	–	0.842	–
x1 = 0.509	–	0.893	–	0.774
x1 = 0.5517	0.881	–	0.83	–
x1 = 0.6182	–	0.859	–	0.743
x1 = 0.6512	0.857	–	0.811	–
x1 = 0.7358	–	0.823	–	0.711
x1 = 0.7497	0.834	–	0.792	–
x1 = 0.8504	0.812	–	0.773	–
x1 = 0.8603	–	0.787	–	0.677
x1 = 0.9487	0.791	–	0.756	–

CC(=O)OCCC(C)C + C1CCCCC1
viscosity [mPa·s], 101 kPa
Details	298.15 K	308.15 K
x1 = 0.0292	0.862	0.73
x1 = 0.0895	0.813	0.686
x1 = 0.1448	0.776	0.653
x1 = 0.2104	0.74	0.621
x1 = 0.3069	0.7	0.587
x1 = 0.3512	0.687	0.577
x1 = 0.3964	0.676	0.569
x1 = 0.4958	0.661	0.561
x1 = 0.6222	0.661	0.57
x1 = 0.753	0.682	0.603
x1 = 0.9257	0.747	0.69

CCOP(OCC)OCC + CC#N
298.15 K, 101 kPa
Details	viscosity [mPa·s]
x1 = 0.2	0.452
x1 = 0.4	0.512
x1 = 0.6	0.573
x1 = 0.8	0.642

C[NH+](C)C.[Cl-] + CC(=O)CCC(=O)O
101 kPa, x2 = 0.75
Details	viscosity [mPa·s]
293.15 K	74.02
303.15 K	42.25
313.15 K	25.57
323.15 K	17.71

CC(=O)Nc1ccccc1 + CC(=O)O
viscosity [mPa·s], 101.3 kPa
Details	x1 = 0.1	x1 = 0.204	x1 = 0.288
298.15 K	19	30.2	43.6
323.15 K	11.8	18.2	27.7

CC(=O)O.OCCNCCO + CC(=O)O.NCCO
viscosity [mPa·s], 101.3 kPa
Details	x2 = 0.132	x2 = 0.2549	x2 = 0.3688	x2 = 0.4761	x2 = 0.5761	x2 = 0.671	x2 = 0.7597	x2 = 0.8444	x2 = 0.9235
293.15 K	2246	2377	2507	2638	2769	2900	3031	3161	3292
298.15 K	1454	1544	1635	1725	1815	1906	1996	2086	2177
303.15 K	965.1	1025	1084	1144	1204	1263	1323	1383	1442
308.15 K	657.7	698.1	738.5	778.9	819.3	859.7	900	940.4	980.8
313.15 K	459.4	487.4	515.3	543.3	571.3	599.2	627.2	655.1	683.1
318.15 K	328.1	348	367.8	387.6	407.4	427.3	447.1	466.9	486.7
323.15 K	239.3	253.7	268	282.3	296.7	311	325.3	339.7	354

CCCCCCCC/C=C\CCCCCCCCO + CC(C)[C@@H]1CC[C@@H](C)C[C@H]1O
100 kPa, x2 = 0.5
Details	viscosity [mPa·s]
298.13 K	19.79
298.15 K	19.76
303.15 K	14.47
313.13 K	9.11
323.12 K	5.98

CC(=O)OCCC(C)C + CCCCCC
viscosity [mPa·s], 101 kPa
Details	298.15 K	308.15 K
x1 = 0.0521	0.303	0.286
x1 = 0.149	0.328	0.313
x1 = 0.2509	0.358	0.345
x1 = 0.3492	0.391	0.38
x1 = 0.4851	0.445	0.435
x1 = 0.5317	0.466	0.456
x1 = 0.5507	0.475	0.464
x1 = 0.6504	0.526	0.514
x1 = 0.7492	0.585	0.57
x1 = 0.8506	0.655	0.635
x1 = 0.9546	0.74	0.711

CCCCCCCC/C=C\CCCCCCCC(=O)OCC + CCCCCCCCCCCCCCCC
viscosity [mPa·s], 100 kPa
Details	x1 = 0.1	x1 = 0.2	x1 = 0.3	x1 = 0.4	x1 = 0.5	x1 = 0.6	x1 = 0.7	x1 = 0.8	x1 = 0.9
293.15 K	3.595	3.805	4.056	4.336	4.643	4.964	5.309	5.671	6.032
298.15 K	3.195	3.382	3.599	3.849	4.12	4.405	4.704	5.019	5.335
303.15 K	2.852	3.009	3.2	3.422	3.657	3.906	4.163	4.434	4.708
308.15 K	2.56	2.705	2.873	3.065	3.269	3.485	3.71	3.946	4.185
313.15 K	2.314	2.443	2.589	2.755	2.928	3.113	3.306	3.508	3.715
318.15 K	2.1	2.217	2.351	2.504	2.662	2.83	3.004	3.186	3.372
323.15 K	1.917	2.023	2.144	2.28	2.421	2.571	2.723	2.887	3.053

O=C(O)C1CCCCC1 + CCCCCCCCCCO
viscosity [mPa·s], 101 kPa
Details	310 K	320 K
x2 = 0.0377	12.1	8.54
x2 = 0.0625	11.8	8.32
x2 = 0.1776	10.6	7.57
x2 = 0.2753	9.61	6.94
x2 = 0.4103	8.79	6.39
x2 = 0.4952	8.45	6.15
x2 = 0.5659	8.15	5.94
x2 = 0.6678	7.86	5.72
x2 = 0.7657	7.7	5.6
x2 = 0.8462	7.48	5.48
x2 = 0.9063	7.43	5.36
x2 = 0.9593	7.41	5.3

O=P(O)(O)O + CCCCCCCCO
viscosity [mPa·s], 101 kPa
Details	x1 = 0.0266	x1 = 0.0485	x1 = 0.0865	x1 = 0.1055	x1 = 0.149	x1 = 0.1867	x1 = 0.2054	x1 = 0.2487	x1 = 0.2753	x1 = 0.3073
293.15 K	10.8	11.16	14.06	15.07	19.85	30.76	35.99	40.67	45.65	48.76
303.15 K	6.465	7.085	8.327	9.414	11.8	15.79	17.99	21.76	25.77	28
313.15 K	4.823	5.02	5.655	6.55	7.186	8.765	9.786	11.34	14.18	15.19
323.15 K	3.614	3.765	3.995	4.223	4.716	5.176	5.564	6.076	6.308	6.896

CCCOCC(C)OCC(C)O (stereo not given) + CCCCCCCO
298.15 K, 101 kPa
Details	viscosity [mPa·s]
x1 = 0.0145	5.795
x1 = 0.0297	5.725
x1 = 0.072	5.58
x1 = 0.1172	5.426
x1 = 0.1578	5.332
x1 = 0.2004	5.236
x1 = 0.2276	5.185
x1 = 0.2594	5.134
x1 = 0.3052	5.067
x1 = 0.4171	4.913
x1 = 0.4502	4.864
x1 = 0.5104	4.775
x1 = 0.5572	4.699
x1 = 0.6014	4.616
x1 = 0.6573	4.51
x1 = 0.7008	4.419
x1 = 0.7589	4.295
x1 = 0.8	4.207
x1 = 0.8512	4.098
x1 = 0.9118	3.985
x1 = 0.9578	3.916
x2 = 0.009	3.879
x2 = 0.0121	3.88

Cl + CCCCCCCO
298.15 K, 101 kPa
Details	viscosity [mPa·s]
x1 = 0.05	6.22
x1 = 0.1	7.02
x1 = 0.15	7.6
x1 = 0.19	8.18
x1 = 0.23	8.66
x1 = 0.26	9.02
x1 = 0.29	9.22
x1 = 0.32	9.3
x1 = 0.34	9.26
x1 = 0.37	9.08
x1 = 0.39	8.86
x1 = 0.41	8.62
x1 = 0.43	8.4
x1 = 0.45	8.2

CCCOCC(C)OCC(C)O (stereo not given) + CCCCCO
298.15 K, 101 kPa
Details	viscosity [mPa·s]
x1 = 0.0566	3.194
x1 = 0.1564	3.499
x1 = 0.2104	3.49
x1 = 0.2577	3.486
x1 = 0.3103	3.484
x1 = 0.3524	3.483
x1 = 0.4027	3.481
x1 = 0.4592	3.494
x1 = 0.5107	3.516
x1 = 0.5585	3.545
x1 = 0.6219	3.59
x1 = 0.6862	3.64
x1 = 0.7322	3.684
x1 = 0.7995	3.733
x1 = 0.9032	3.807
x1 = 0.9629	3.849
x2 = 0.0139	3.867

CC(=O)OCCC(C)C + CCCCN
303.15 K, 101 kPa
Details	viscosity [mPa·s]
x2 = 0.2734	0.7086
x2 = 0.4416	0.6996
x2 = 0.5646	0.6833
x2 = 0.6446	0.6711
x2 = 0.7489	0.6443
x2 = 0.8075	0.6212
x2 = 0.8664	0.5934
x2 = 0.8969	0.5868
